Measurements taken from PubChem BioAssay (NCI).
Where “and” joins values, the source holds several entries; their conditions need not be identical. Equal entries are not always repeated.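 Method: 48-hour compound exposure of cells in 96-well plates, five concentrations, linear interpolation of endpoints. GI50 = concentration required for 50% inhibition of growth. The concentration for full growth arrest is given as TGI.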

Assays:
Test in all cases: DTP human tumour cell line panel, 48 h
786-0 renal = system: 786-0 renal
HL-60(TB) leukemia = system: HL-60(TB) leukemia
MALME-3M melanoma = system: MALME-3M melanoma
MOLT-4 leukemia = system: MOLT-4 leukemia
OVCAR-3 ovarian = system: OVCAR-3 ovarian
OVCAR-5 ovarian = system: OVCAR-5 ovarian
UACC-257 melanoma = system: UACC-257 melanoma
K-562 leukemia = system: K-562 leukemia

Structure (SMILES)	GI50 (786-0 renal)	TGI (786-0 renal)	GI50 (HL-60(TB) leukemia) [µM]	TGI (HL-60(TB) leukemia)	GI50 (MALME-3M melanoma)	TGI (MALME-3M melanoma)	GI50 (MOLT-4 leukemia)	TGI (MOLT-4 leukemia)	GI50 (OVCAR-3 ovarian)	TGI (OVCAR-3 ovarian)	GI50 (OVCAR-5 ovarian)	TGI (OVCAR-5 ovarian) [µM]	GI50 (UACC-257 melanoma)	TGI (UACC-257 melanoma)	TGI (K-562 leukemia)	GI50 (K-562 leukemia)
CN1CC=C(c2cc(NC(=O)Nc3ccc(Oc4ccnc(NC(=O)C5CC5)c4)c(F)c3)cc(C(F)(F)F)c2)CC1	0.232 µM	0.908 µM	0.183	0.704 µM	0.289 µM	1.13 µM	0.202 µM	0.943 µM	0.234 µM	4.93 µM	0.289 µM	2.44	1.34 µM	3.24 µM		
N#CC(C#N)=NNc1ccc2cn[nH]c2c1		> 100 µM		45.3 µM		69.5 µM		54.2 µM		76.1 µM		> 100		60.2 µM	> 100 µM	
O=C1Nc2ccccc2/C1=C\c1c(-c2ccccc2)nc2sccn12	2.39 µM	9.23 µM	0.999	7.33 µM	1.92 µM	21.7 µM	1.1 µM	> 37.5 µM	0.506 µM	1.93 µM	2.7 µM	11.9	14.9 µM	41 µM	> 45.8 µM	0.624 µM
Cc1ccccc1C1=C(c2cn(C)c3ccccc23)C(=O)NC1=O	> 25 µM	> 25 µM	10.8	> 25 µM	23.9 µM	> 25 µM	10.8 µM	> 25 µM	10.8 µM	> 25 µM	> 23.6 µM	> 25	> 25 µM	> 25 µM	> 25 µM	13.6 µM
CS(=O)(=O)CCNCc1ccc(-c2ccc3ncnc(Nc4ccc(OCc5cccc(F)c5)c(Cl)c4)c3c2)o1	> 10 µM and 4.43 µM and 5.46 µM	> 10 µM and > 42.3 µM and 29.2 µM		> 10 µM and > 100 µM and 23.6 µM	> 10 µM and 1.66 µM and 2.67 µM	> 10 µM and 3.23 µM and 6.56 µM	4.54 µM and 2.93 µM and 2.94 µM	> 10 µM and > 100 µM and 21.9 µM	> 10 µM and 3.54 µM and 8.01 µM	> 10 µM and 52.6 µM and 24.2 µM			> 10 µM and 1.97 µM and 3.1 µM	> 10 µM and 3.75 µM and 6.52 µM	> 10 µM and 4.67 µM and 18.3 µM	> 10 µM and 1.99 µM and 2.61 µM
COc1cc2c(NCCCCCO)ncnc2c(OC)c1OC		> 100 µM		> 100 µM		> 100 µM		> 100 µM		> 100 µM		> 100		> 100 µM	> 100 µM	
Oc1cc(N2CC2)c(O)cc1N1CC1	0.742 µM	4.69 µM	0.238	2.14 µM	0.217 µM	0.55 µM	0.591 µM	7.89 µM	0.839 µM	4.46 µM	1.88 µM	9.93	0.851 µM	2.98 µM	15.4 µM	1.2 µM
ClCCCSSCCCCl		> 100 µM		16 µM		> 100 µM		7.42 µM		97.1 µM		> 100		> 100 µM	> 100 µM	
CN1CCN(C(=O)[C@@]2(C)CC[C@]3(C)CC[C@]4(C)C(=CC[C@@H]5[C@@]6(C)CCC(=O)NC(C)(C)[C@@H]6CC[C@]54C)[C@@H]3C2)CC1	1.58 µM	2.98 µM	1.87	3.87 µM	1.45 µM	2.82 µM	1.52 µM	3.66 µM	2.01 µM	4.7 µM	1.65 µM	3.17	2.1 µM	4.72 µM	3.02 µM	1.07 µM
COC(=O)Oc1nn(C(=O)OC)c(=O)c2ccccc12		> 100 µM		> 100 µM		> 100 µM		> 100 µM		> 100 µM		> 100		> 100 µM	> 100 µM	
COc1ccc(-c2coc3cc(O)ccc3c2=O)cc1		> 100 µM		> 100 µM		> 100 µM		> 100 µM		> 100 µM		> 100		> 100 µM	> 100 µM	
COC(=O)C12CCC(C)(C)CC1C1=CCC3C4(C)CC(O)C(O)C(C)(C(=O)OC)C4CCC3(C)C1(CO)CC2 (stereo not drawn)		23.3 µM		> 100 µM				34.4 µM		31.5 µM		31.8		31.7 µM	> 100 µM	
CNS(=O)(=O)OCC1OC(n2cnc3cncnc32)C(O)C1O (stereo not drawn)	> 100 µM	> 100 µM	> 100	> 100 µM	> 100 µM	> 100 µM	> 100 µM	> 100 µM	> 100 µM	> 100 µM	> 100 µM	> 100	> 100 µM	> 100 µM	> 100 µM	> 100 µM
COc1cc(-c2cc3ncccc3c3nc(OCCN(C)C)c4cccnc4c23)cc(OC)c1OC	0.318 µM	1.16 µM	1.25	4.73 µM	0.431 µM	2.5 µM	0.314 µM	2.71 µM	0.64 µM	3.09 µM	1.34 µM	3.68	0.567 µM	4.06 µM	4.63 µM	0.339 µM
COc1cc2c3c(n(CCCN(CCCN(CCCn4c5c(c6ccccc6c4=O)C(=O)c4ccccc4-5)C(=O)OC(C)(C)C)C(=O)OC(C)(C)C)c(=O)c2cc1OC)-c1cc2c(cc1C3=O)OCO2	> 100 µM	> 100 µM	> 100	> 100 µM	> 100 µM	> 100 µM	> 100 µM	> 100 µM					> 100 µM	> 100 µM	> 100 µM	> 100 µM
CC(=O)OCC12CN(C#N)C3C4COC(CC41)C1(C(=O)N(C)c4ccccc41)C32 (stereo not drawn)		> 100 µM		30.7 µM		54.1 µM		> 100 µM		14.7 µM		> 100		51.8 µM	> 100 µM	
Cc1ccc(-c2nc3nc(-c4ccc(F)cc4)nc(N4CCNCC4)c3o2)cc1	1.76 µM	3.34 µM	1.91	4.3 µM	6.94 µM	19.6 µM	2.1 µM	4.42 µM	1.86 µM	3.5 µM	1.97 µM	4.54	18.4 µM	37.6 µM	5.44 µM	1.46 µM
C[C@H](c1ccc(F)cc1CCCC(=O)O)N(c1cc(F)ccc1F)S(=O)(=O)c1ccc(Cl)cc1	31.2 µM	> 100 µM	30.7	> 95.1 µM	23.5 µM	93.8 µM	22.8 µM	> 83 µM	19.6 µM	44 µM	43.8 µM	> 100	26.9 µM	> 100 µM	> 100 µM	36.6 µM

Structure (SMILES)	GI50 (786-0 renal)	TGI (786-0 renal)	GI50 (HL-60(TB) leukemia) [µM]	TGI (HL-60(TB) leukemia)	GI50 (MALME-3M melanoma)	TGI (MALME-3M melanoma)	GI50 (MOLT-4 leukemia)	TGI (MOLT-4 leukemia)	GI50 (OVCAR-3 ovarian)	TGI (OVCAR-3 ovarian)	GI50 (OVCAR-5 ovarian)	TGI (OVCAR-5 ovarian) [µM]	GI50 (UACC-257 melanoma)	TGI (UACC-257 melanoma)	TGI (K-562 leukemia)	GI50 (K-562 leukemia)
OCc1ccc(-c2csc(-c3ccc(CO)o3)c2)o1	69.5 µM	> 100 µM	22.9	> 100 µM	35.5 µM	> 100 µM	20.7 µM	60.1 µM	5.86 µM	> 100 µM	0.199 µM	1.52	1.56 µM	4.75 µM	> 100 µM	11.6 µM
Cn1cc(C2=C(c3c4n(c5ccccc35)CCNC4)C(=O)NC2=O)c2ccccc21	14.8 µM	> 25 µM	3.92	> 25 µM	> 11.5 µM	> 24.1 µM	11 µM	> 25 µM	5.42 µM	> 21.7 µM	> 25 µM	> 25	> 11.4 µM	> 20.2 µM	> 25 µM	4.1 µM
Fc1cc(F)c(F)c(S)c1F		> 100 µM		> 100 µM		> 100 µM		66 µM		> 100 µM		> 100		> 100 µM	> 100 µM	
O=C(Cn1c(C(=O)c2ccc(Cl)cc2)nc(-c2ccc(Cl)cc2)c1-c1ccc(Cl)cc1)c1ccccc1	> 100 µM	> 100 µM	> 100	> 100 µM	> 100 µM	> 100 µM	> 100 µM	> 100 µM	> 100 µM	> 100 µM	> 100 µM	> 100	> 100 µM	> 100 µM	> 100 µM	> 100 µM
Cc1ccc([P+](Cc2ccccc2)(c2ccccc2)c2ccccc2)cc1	4.11 µM	> 100 µM	1.14	3.69 µM			3.32 µM	14 µM	1.52 µM	65.8 µM	3.42 µM	> 100	0.98 µM	4.8 µM	> 100 µM	1.26 µM
CC1(C)CC(=O)C=C(/C=C/Sc2c(Cl)c(Cl)nc(Cl)c2Cl)C1	3.92 µM	15.2 µM					4.61 µM	> 100 µM	2.6 µM	8.29 µM	14.5 µM	29.7	15.6 µM	31.8 µM	> 100 µM	8.79 µM
COc1ccc(/C=C/C(=O)c2c(O)ccc3c(C)c(C(=O)O)oc23)cc1	90.3 µM	> 100 µM	35.5	> 100 µM	94.6 µM	> 100 µM	31 µM	> 100 µM	58.3 µM	> 100 µM	> 100 µM	> 100	84.9 µM	> 100 µM	> 100 µM	36.2 µM
COc1cc2c(c(O)c1Cl)C(=O)c1c(O)cc(C[C@H](C)O)cc1[C@H]2[C@H]1c2cc(C[C@H](C)O)cc(O)c2C(=O)c2c1cc(OC)c(Cl)c2O	3.21 µM and 30.3 µM	75 µM and > 100 µM				5.27 µM and 47.3 µM		75 µM and > 100 µM							75 µM and > 100 µM	
O=C(CCCn1c2c(sc3ccccc32)c(=O)n2nnc(-c3ccccc3)c12)NCCc1cnc[nH]1	0.594 µM	1.79 µM	0.0724	3.21 µM	1.88 µM	3.58 µM	0.815 µM	> 100 µM	2.01 µM	5.41 µM	0.0751 µM	1.51	2.2 µM	4.39 µM		0.0456 µM
O=C(/C=C/C12c3ccccc3C(c3ccccc31)C1C(=O)N(c3ccc(Cl)cc3)C(=O)C12)c1ccccn1 (stereo not drawn)	0.194 µM	0.398 µM	0.24	1.35 µM	0.242 µM	0.639 µM	0.322 µM	> 100 µM	0.224 µM	0.52 µM	0.309 µM	1.14	0.39 µM	1.96 µM	> 100 µM	0.267 µM
Cc1ccc([Se](=C(C(=O)c2ccccc2)C(=O)c2ccccc2)c2ccc(C)cc2)cc1		> 100 µM		54.2 µM		50.3 µM		43.3 µM		74.1 µM		> 100		53.1 µM	84.5 µM	
CC(c1cc(Cl)ccc1O)c1cc(Cl)ccc1O	15.7 µM	36.1 µM	2.55	5.75 µM	4.61 µM	22.7 µM	3.3 µM	10.3 µM	3.62 µM	13 µM	11.1 µM	26.7				
O=C(O)CCCCn1ccc(=O)[nH]c1=O		> 100 µM		> 100 µM		> 100 µM		> 100 µM		> 100 µM		> 100		> 100 µM	> 100 µM	
O=C([O][Hg][c]1ccccc1)c1ccccc1	1.81 µM	3.5 µM	0.325	1.86 µM	1.77 µM	3.39 µM	1.38 µM	5.7 µM	0.298 µM	0.843 µM	2.48 µM	5.56	1.38 µM	3.03 µM	4.74 µM	1.11 µM
N#Cc1c(NCc2ccccc2)nc(NCc2ccccc2)c(C#N)c1-c1ccc(Cl)cc1	> 50 µM and 41.5 µM	> 100 µM	> 50	> 50 µM	> 100 µM	> 100 µM	> 50 µM and 76.9 µM	> 100 µM	> 50 µM and 34.4 µM	> 100 µM	> 50 µM and 77.3 µM	> 100	> 100 µM	> 100 µM	> 50 µM	> 50 µM
Cc1cc(Cl)nc2ccc(Cc3ccc4nc(Cl)cc(C)c4c3)cc12		30.7 µM				> 100 µM		> 100 µM		> 100 µM		> 100		> 100 µM	> 100 µM	
COC1=CC(c2ccc[nH]2)=N/C1=C\c1[nH]c(C)c(C(=O)CCC(=O)Oc2ccc3c(c2)CCC2C3CC[C@]3(C)[C@@H](O)CC[C@@H]23)c1C (stereo partly drawn)	2.04 µM	4.35 µM	4.7	> 100 µM					2.96 µM	27.9 µM	5.47 µM	> 100	> 100 µM	> 100 µM		
